Assay results taken from US7358266B2, “Cyclopropyl and cyclobutyl epothilone analogs” (The Scripps Research Institute, priority 2001, dated 2008).
“Also recorded” adds a separate entry of the source.

Experiments:
[1] = test system: ovarian carcinoma (1A9, PTX10, PTX22, A8) and epidermoid (KB-31, KB-8511) cancer cell lines; assay: Cytotoxicity, general statements over the cell line panel; assay type: cell-based, human; details: for cytotoxic activity (in words): cell line not specified or all cell lines
Procedure: (§1) The biological activities of the synthesized epothilones were evaluated through cytotoxicity and tubulin polymerization assays. Cytotoxicity was first evaluated in a set of ovarian carcinoma cell lines, including a parental cell line (IA9) and three drug-resistant cell lines, namely the paclitaxel-resistant cell lines (Giannakakou, P.; et al. J. Biol. Chem. 1997, 272, 17118-17125) IA9/PTX10 and IA9/PTX22 and the epothilone-resistant cell line (Giannakakou, P.; et al. Proc. Natl. Acad. Sci. USA 2000, 97, 2904-2909) 1A9/A8. These resistant cell lines harbor distinct acquired P-tubulin mutations which affect drug-tubulin interaction and result in impaired taxane and epothilone-driven tubulin polymerization. Further cytotoxicity studies were undertaken using a set of human epidermoid cancer cell lines, including a parent cell line (KB-31), and a paclitaxel-resistant (due to P-gp overexpression) cell line (KB-8511).
(§2) IC50 values for each compound are given in nM and represent the mean of 3-5 independent experiments±standard error of the mean. Relative resistance (RR) is calculated as an IC50 value for each resistant subline divided by that for the parental cell line (1A9).^b Data from reference 3. CP=cyclopropyl, CB=cyclobutyl, na=not applicable, nd=not determined, py=5-methylpyridine side chain.
(§3) FIG. 16 is a table of tubulin polymerization potency^a and cytotoxicity^b of epothilones 1 through 12 and paclitaxel against human epidermoid cancer cell lines.^a% TP=percent tubulin polymerized after incubation of tubulin with a known concentration of compound (typically 3 μM).^b Cytotoxicity towards human cancer cell lines as IC50 values given in nM. KB-31: epidermoid Taxol®-sensitive, KB-8511: epidermoid Taxol®-resistant (due to P-gp over expression).

[2] = test system: tubulin; assay: In vitro tubulin polymerization, fraction of tubulin polymerized (% TP); assay type: biochemical
Procedure: (§4) The cytotoxicity analysis was supplemented with data from two independent in vitro tubulin polymerization assays. In one assay, the fraction of tubulin polymerized into microtubules upon exposure to a given concentration of the respective compound was determined (see Table 2). In the other assay, tubulin polymerization kinetics upon exposure to the respective compounds was determined using purified rat brain tubulin through measurement of the absorbance at 350 nm (see FIG. 3). For this analysis, paclitaxel, epothilone A (1) and epothilone B (2) were used as controls while compounds 9, 11 and 12 were selected for in vitro analysis.
as §3

[3] = test system: A8 (β274) epothilone-selected β-tubulin mutant clone of 1A9; assay: 72 h growth inhibition assay (SRB), epothilone-selected clone A8; assay type: cell-based, human
Procedure: as §1, §2

[4] = test system: PTX10 (β270) paclitaxel-selected β-tubulin mutant clone of 1A9; assay: 72 h growth inhibition assay (SRB), paclitaxel-selected clone PTX10; assay type: cell-based, human
Procedure: as §1, §2

[5] = test system: purified rat brain tubulin; assay: Tubulin polymerization kinetics, absorbance at 350 nm; assay type: biochemical; details: for in vitro tubulin polymerization activity (in words) / maximum degree of tubulin polymerization compared with epothilone A (1): A350
Procedure: as §4

[6] = test system: KB-31 human epidermoid cancer cell line (Taxol-sensitive); assay: Cytotoxicity against human epidermoid cancer cell line KB-31; assay type: cell-based; details: parental sensitive KB-31 cells; 3 compared with epothilone A (1)
Procedure: as §1, §3

[7] = test system: 1A9 human ovarian carcinoma cells; assay: 72 h growth inhibition assay (SRB), parental 1A9 cells; assay type: cell-based
Procedure: as §1, §2

[8] = test system: PTX22 (β364) paclitaxel-selected β-tubulin mutant clone of 1A9; assay: 72 h growth inhibition assay (SRB), paclitaxel-selected clone PTX22; assay type: cell-based; details: Homo sapiens, read-out: IC50 against PTX22
Procedure: as §1, §2

Row | Compound | cytotoxic activity (in words) [1] | tubulin polymerization promotion (in words) [2] | activity against clone A8 versus parental line (in words) [3] | activity against clone PTX10 versus parental line (in words) [4] | time to A350=0.25 ([5]; polymerization kinetics) | inhibition of KB-31 cell growth (in words) [6] | inhibition of 1A9 cell growth (in words) ([7]; parental sensitive 1A9 cells, 3 compared with epothilone A (1)) | factor less active than 11 ([1]; cytotoxicity relative to analog 11) | in vitro tubulin polymerization activity (in words) [5] | maximum degree of tubulin polymerization compared with epothilone A (1) [5] | IC50 [8] | IC50 ([3]; Homo sapiens, 72 h, SRB, read-out: IC50 against A8) | IC50 ([7]; Homo sapiens, Ovarian carcinoma cell, 1A9, 72 h, SRB, read-out: IC50 in the 1A9 human ovarian carcinoma cell line) | IC50 ([4]; Homo sapiens, 72 h, SRB, read-out: IC50 against PTX10)
1 | 15S-cyclobutyl epothilone A [Compound 4] | retains good activity; also recorded: cytotoxic agents | potent tubulin polymerization promoters | lose some activity | lose some activity | – | – | – | – | – | – | – | – | – | –
2 | C/C(=C\c1csc(C)n1)[C@@H]1C[C@@H]2O[C@@H]2CCC[C@H](C)[C@H](O)[C@@H](C)C(=O)C(C)(C)[C@@H](O)CC(=O)O1 [Compound 1, epothilone A] | – | – | – | – | 2 min | – | – | – | – | – | – | – | – | –
3 | C/C(=C\c1csc(C)n1)[C@@H]1C[C@@H]2C[C@@H]2CCC[C@H](C)[C@H](O)[C@@H](C)C(=O)C(C)(C)[C@@H](O)CC(=O)O1 [Compound 3, cyclopropyl epothilone A] | cytotoxic agents | potent tubulin polymerization promoters | lose some activity | lose some activity | – | slightly more potently | slightly more potently | – | – | – | – | – | – | –
4 | C/C(=C\c1ccc(C)cn1)[C@@H]1C[C@@H]2C[C@@H]2CCC[C@H](C)[C@H](O)[C@@H](C)C(=O)C(C)(C)[C@@H](O)CC(=O)O1 [Compound 9] | highly active; also recorded: increased cytotoxic activity; also recorded: cytotoxic agents | potent tubulin polymerization promoters | lose some activity | lose some activity | – | – | – | three to five | good in vitro activity | smaller | – | – | – | –
5 | C/C(=C\c1ccc(C)cn1)[C@@H]1C[C@@H]2C[C@H]2CCC[C@H](C)[C@H](O)[C@@H](C)C(=O)C(C)(C)[C@@H](O)CC(=O)O1 [Compound 11, (12R, 13S, 15S)-cyclopropyl 5-methylpyridine epothilone A] | outstanding activity; also recorded: increased cytotoxic activity; also recorded: cytotoxic agents | potent tubulin polymerization promoters | lose some activity | lose some activity | – | – | – | – | good in vitro activity | smaller | < 10 nM | < 10 nM | 0.6 nM | < 10 nM
